Measured values reported in patent publication US20090118372A1, “Inhibitors Of Biotin Protein Ligase” (Adelaide Research & Innovation Pty Ltd., priority 2004, published 2009).
Values belong to the molecule of their own block, whether it stands above or below them.

Tests used:
[1] = molecular target: T1, human BPL (Homo sapiens, UniProt P50747); assay: In vitro biotinylation assay of human BPL (Example 9); assay type: biochemical
T1 construct: Vector pARA(hBPL-His6) was produced by cloning the full-length gene into Nco1/Hind111 treated pARA13; initiator Met (NcoI site) before Ala80 (N); made in house; host or cells: E. coli BL21(DE3)pLys, pET-16b vector
T1 sequence (P50747 80-726 limits assumed): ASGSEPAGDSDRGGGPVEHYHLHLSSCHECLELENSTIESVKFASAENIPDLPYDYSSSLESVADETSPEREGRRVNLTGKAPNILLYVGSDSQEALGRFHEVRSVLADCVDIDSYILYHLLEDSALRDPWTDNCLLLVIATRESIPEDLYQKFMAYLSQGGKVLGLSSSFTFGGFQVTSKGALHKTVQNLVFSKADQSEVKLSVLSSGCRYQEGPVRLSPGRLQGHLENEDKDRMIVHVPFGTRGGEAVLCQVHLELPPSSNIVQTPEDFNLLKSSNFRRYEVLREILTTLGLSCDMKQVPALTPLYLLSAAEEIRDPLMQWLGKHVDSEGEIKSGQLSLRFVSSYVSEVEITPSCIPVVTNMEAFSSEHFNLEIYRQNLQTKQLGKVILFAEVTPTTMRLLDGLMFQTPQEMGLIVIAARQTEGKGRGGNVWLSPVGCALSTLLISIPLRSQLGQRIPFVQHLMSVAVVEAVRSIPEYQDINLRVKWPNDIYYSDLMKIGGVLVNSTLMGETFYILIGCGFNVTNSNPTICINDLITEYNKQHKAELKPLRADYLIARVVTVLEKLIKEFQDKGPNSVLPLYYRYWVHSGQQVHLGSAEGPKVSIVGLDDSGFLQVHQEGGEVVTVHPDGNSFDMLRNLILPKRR
Description: (§1) One hundred ng of biotin domain was coated onto each well of Griener Lumitrac 600 White 96-well plates (Stennick Scientific) with >95% of the peptide binding. Coating was performed overnight at 4° C. in 100 uL of Tris Buffered saline (TBS, pH 7.5). The sample was removed and wells blocked in 150 ul of a 1% BSA solution in TBS for 1 hr at 37° C. The blocking buffer was removed and wells washed five times in TBS buffer containing 0.1% Tween-20. Into each well 85 ul of the BPL reaction mix was added. The reaction for both C. albicans and human BPL are performed in 50 mM Tris-HCl pH 8.0, 100 uM ATP, 5.5 mM MgCl2, 0.1 mg/ml BSA, 10 uM biotin, […].
Ten ul of either buffer alone or buffer containing inhibitor was added to the reaction mix and pre-equilibrated at 37° C. for 5 minutes. […] The quantitative analysis of biotinylated protein formed in the reaction and coupled onto the well surface was determined using time resolved fluorescence. […] Fifty ul of DELFIA Enhancement solution (Perkin Elmer) was added and incubated for ten minutes at room temperature before quantitation. Quantitation was performed using a FLUOstar Galaxy plate reader (BMG Labtechnologies). […]
(§2) The activity of BPL from Escherichia coli, Staphylococcus aureus, Saccharomyces cerevisiae and Homo sapiens was measured using an in vitro biotinylation assay in the presence of increasing concentrations of Compounds 2 to 5.

[2] = molecular target: C. albicans BPL (Candida albicans, UniProt A0A1D8PUA1); assay: biochemical; assay type: biochemical
Description: One hundred ng of biotin domain was coated onto each well of Griener Lumitrac 600 White 96-well plates (Stennick Scientific) with >95% of the peptide binding. Coating was performed overnight at 4° C. in 100 uL of Tris Buffered saline (TBS, pH 7.5). The sample was removed and wells blocked in 150 ul of a 1% BSA solution in TBS for 1 hr at 37° C. The blocking buffer was removed and wells washed five times in TBS buffer containing 0.1% Tween-20. Into each well 85 ul of the BPL reaction mix was added. The reaction for both C. albicans and human BPL are performed in 50 mM Tris-HCl pH 8.0, 100 uM ATP, 5.5 mM MgCl2, 0.1 mg/ml BSA, 10 uM biotin, 0.1 uM dithiothreitol.
Ten ul of either buffer alone or buffer containing inhibitor was added to the reaction mix and pre-equilibrated at 37° C. for 5 minutes. BPL reactions are initiated by the addition of 5 ul enzyme to a final concentration of 3.4 nM (1-5 nM). The reaction is allowed to proceed at 37° C. for 15 minutes at which point it is terminated by the addition of 5 ul 0.5 M EDTA (final concentration 25 mM). The reaction mix was discarded and wells washed five times in TBS-TD (TBS, 0.1% Tween-20 and 100 uM diethylenetriaminepentaacetic acid (DPTA)). The quantitative analysis of biotinylated protein formed in the reaction and coupled onto the well surface was determined using time resolved fluorescence. Fifty ul of Europium labelled streptavidin (Perkin-Elmer) solution, diluted to 0.1 ug/ml in TBS-TD, was added to each well. The plates were incubated at 37° C. for 1 hr before being washed five times in TBS-TD then three times in water. Fifty ul of DELFIA Enhancement solution (Perkin Elmer) was added and incubated for ten minutes at room temperature before quantitation. Quantitation was performed using a FLUOstar Galaxy plate reader (BMG Labtechnologies).
Each compound in the screening library was dissolved in 100% DMSO, added to the reactions to a final concentration of 10 μM or 50 μM and their effect on BPL activity measured. […] The inhibitory activity of the compounds was determined relative to the negative control reactions containing only DMSO.

[3] = molecular target: T2, Escherichia coli BPL (Escherichia coli, UniProt P06709); assay: In vitro biotinylation assay of E. coli BPL; assay type: biochemical
T2 construct: the plasmid pHBA, which contains the entire coding region for E. coli BirA; made in house; host or cells: E. coli BL21(DE3), plasmid pHBA (pET-16b)
Description: (§3) Purified hPC-108 was analysed in an in vitro biotinylation assay using recombinant human BPL as follows: BPL activity was assayed by measuring the incorporation of [^3H]biotin into biotin domain. The reactions contained 50 mM Tris-HCl, pH 8.0, 3 mM ATP, 5.5 mM MgCl2, 50 mM KCl, 5 uM biotin, 5 pmol [^3H]biotin (specific activity 35-44 Ci/mmol) 0.1 mM dithiothreitol, 0.1 mg/ml BSA and varying concentrations of hPC-108. The reaction was initiated by addition of purified […] BPL to a final concentration of 13 nM and incubated at 37° C. for up to 30 minutes when aliquots of the reaction were spotted onto biotin- and trichloroacetic acid-treated filters. After air-drying, the filters were washed twice in 10% ice cold trichloroacetic acid and once in ethanol, dried and the acid insoluble radioactivity measured. Values for Km and Vmax were determined by fitting a plot of substrate concentration against rate to the Michaelis-Menten equation using GraphPad Prism for MacIntosh (GraphPad Software Inc, San Diego, Calif.).
as §2

[4] = molecular target: T3, Saccharomyces cerevisiae BPL (Saccharomyces cerevisiae, UniProt P48445); assay: In vitro biotinylation assay of S. cerevisiae BPL; assay type: biochemical
T3 sequence (P48445 1-690): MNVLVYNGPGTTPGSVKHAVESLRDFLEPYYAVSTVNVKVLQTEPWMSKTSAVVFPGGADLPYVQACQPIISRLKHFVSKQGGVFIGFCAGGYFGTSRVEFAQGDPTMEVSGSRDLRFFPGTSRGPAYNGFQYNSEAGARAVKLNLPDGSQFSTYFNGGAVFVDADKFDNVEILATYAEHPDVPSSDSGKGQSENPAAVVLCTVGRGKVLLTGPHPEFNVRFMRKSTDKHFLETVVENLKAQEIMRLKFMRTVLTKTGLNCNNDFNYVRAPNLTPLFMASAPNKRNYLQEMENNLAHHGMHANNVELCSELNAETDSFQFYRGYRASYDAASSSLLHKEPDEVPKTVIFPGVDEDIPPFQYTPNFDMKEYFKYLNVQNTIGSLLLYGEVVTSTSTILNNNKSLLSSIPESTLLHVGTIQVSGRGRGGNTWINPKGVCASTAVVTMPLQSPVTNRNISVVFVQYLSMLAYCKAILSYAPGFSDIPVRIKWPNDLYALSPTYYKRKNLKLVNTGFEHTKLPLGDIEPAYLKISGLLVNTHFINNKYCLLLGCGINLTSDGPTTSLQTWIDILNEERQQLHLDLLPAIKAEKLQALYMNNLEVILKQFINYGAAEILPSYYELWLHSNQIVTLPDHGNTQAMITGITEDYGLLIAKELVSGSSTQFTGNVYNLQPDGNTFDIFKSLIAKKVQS
Description: as §1
Ten ul of either buffer alone or buffer containing inhibitor was added to the reaction mix and pre-equilibrated at 37° C. for 5 minutes. […] The quantitative analysis of biotinylated protein formed in the reaction and coupled onto the well surface was determined using time resolved fluorescence. […] Fifty ul of DELFIA Enhancement solution (Perkin Elmer) was added and incubated for ten minutes at room temperature before quantitation. Quantitation was performed using a FLUOstar Galaxy plate reader (BMG Labtechnologies).
as §2

[5] = molecular target: T4, Staphylococcus aureus BPL (UniProt A0A3A5LBF0); assay: In vitro biotinylation assay of S. aureus BPL; assay type: biochemical
T4 sequence (A0A3A5LBF0 1-323): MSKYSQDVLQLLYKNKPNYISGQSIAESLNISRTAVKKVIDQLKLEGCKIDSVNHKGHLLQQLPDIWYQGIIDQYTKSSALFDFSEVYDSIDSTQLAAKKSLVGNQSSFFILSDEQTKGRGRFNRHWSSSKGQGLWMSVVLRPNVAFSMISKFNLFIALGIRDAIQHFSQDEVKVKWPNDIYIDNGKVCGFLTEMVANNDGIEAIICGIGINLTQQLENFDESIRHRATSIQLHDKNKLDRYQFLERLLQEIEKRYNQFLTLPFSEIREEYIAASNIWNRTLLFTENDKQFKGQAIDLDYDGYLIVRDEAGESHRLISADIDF
Description: as §3, §2

[6] = system: Staphylococcus aureus; assay: Antibiotic activity against Staphylococcus aureus on solid media and in liquid culture; assay type: cell-based; details: L-agar, filter disc soaked in 100 μM, overnight 37° C.
Description: The antibacterial properties of Compound 2 were assessed against Staphylococcus aureus grown on both solid media (A-C) and in liquid culture (D). Log phase culture was plated onto L-agar and filter discs soaked in A) DMSO (vehicle control), B) 100 μM ampicillin or C) 100 μM compound #2. A single filter was placed in the centre of a bacterial plate before being placed at 37° C. overnight. The clear zone surrounding the disc in B & C represents sensitivity of S. aureus to the treatment. D) This sensitivity was quantitated in liquid culture by seeding 10^4 cells in a 96 well plate followed by overnight growth at 37° C. The growth of the culture was measured by absorbance at 600 nm.

[7] = system: T5, hPC-108, biotin domain of human pyruvate carboxylase (C-terminal 108 amino acids), cleaved from GST
T5 sequence: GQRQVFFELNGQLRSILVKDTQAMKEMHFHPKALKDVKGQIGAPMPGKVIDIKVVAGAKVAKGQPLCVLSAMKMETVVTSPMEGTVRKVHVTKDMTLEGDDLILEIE

[8] = molecular target: T1, human BPL; assay: Kinetic analysis of biotinylation of hPC-108, [3H]biotin incorporation assay; assay type: biochemical; details: varying concentrations of hPC-108; read-out: KM of human BPL for the biotin domain
Description: as §3

Chain of C. albicans BPL (A0A1D8PUA1 entry or part of it): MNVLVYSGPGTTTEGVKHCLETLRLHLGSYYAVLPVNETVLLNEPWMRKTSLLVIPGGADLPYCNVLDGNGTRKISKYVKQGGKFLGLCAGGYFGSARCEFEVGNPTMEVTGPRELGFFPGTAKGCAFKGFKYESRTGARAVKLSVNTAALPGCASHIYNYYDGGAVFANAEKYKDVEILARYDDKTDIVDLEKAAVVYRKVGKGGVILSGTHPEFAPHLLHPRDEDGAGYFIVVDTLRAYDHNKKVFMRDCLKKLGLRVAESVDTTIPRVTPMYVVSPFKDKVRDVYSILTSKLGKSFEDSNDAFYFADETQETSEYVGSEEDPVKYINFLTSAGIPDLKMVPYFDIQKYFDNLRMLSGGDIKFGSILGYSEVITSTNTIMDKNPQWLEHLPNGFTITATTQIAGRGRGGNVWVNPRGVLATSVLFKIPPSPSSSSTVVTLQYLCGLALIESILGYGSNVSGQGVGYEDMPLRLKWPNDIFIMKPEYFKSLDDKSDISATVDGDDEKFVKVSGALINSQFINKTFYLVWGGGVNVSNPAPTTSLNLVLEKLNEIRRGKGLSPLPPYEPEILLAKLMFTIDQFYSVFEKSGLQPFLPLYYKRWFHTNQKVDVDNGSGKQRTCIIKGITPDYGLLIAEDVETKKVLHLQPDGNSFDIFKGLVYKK
T2 sequence (P06709 whole entry): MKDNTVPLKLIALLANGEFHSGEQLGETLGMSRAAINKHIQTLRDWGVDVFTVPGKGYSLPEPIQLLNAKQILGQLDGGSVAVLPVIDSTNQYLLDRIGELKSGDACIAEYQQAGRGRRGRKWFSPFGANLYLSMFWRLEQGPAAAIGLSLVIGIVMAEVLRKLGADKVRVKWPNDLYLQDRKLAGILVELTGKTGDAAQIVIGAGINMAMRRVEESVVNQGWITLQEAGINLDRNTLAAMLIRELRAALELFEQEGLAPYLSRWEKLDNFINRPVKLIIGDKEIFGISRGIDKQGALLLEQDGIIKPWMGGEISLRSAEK

Inhibition of the human BPL reaction (in words) [1]: inhibitor
Inhibition of the Candida BPL reaction (in words) [2]: potent inhibitors
IC50 ([2]; concentration response curve, read-out: IC50, inhibition of Candida BPL activity): 1000 ± 200 nM
Molecule: Nc1ncnc2c1ncn2C1OC(COP(=O)(O)OCCCCCC2SCC3NC(=O)NC32)C(O)C1O (stereo not drawn) [BtnOH-AMP, biotinol-adenylate]

Molecule: O=P(O)(O)OP(=O)(O)O [pyrophosphate]
Inhibition of the Candida BPL reaction (in words) [2]: potent inhibitors
Inhibition of the Candida BPL reaction by pyrophosphate ([2]; in the range of 50 uM to 1 mM): strongly inhibited

Molecule: C=CCC(Cc1cc(OC)cc(OC)c1)(C(=O)O)C(=O)O [Compound 4, 2-allyl-2-(3,5-dimethoxybenzyl)malonic acid]
IC50 [1]: > 50000 nM
IC50 [3]: 0.9 nM
IC50 [4]: > 50000 nM
IC50 [5]: 2700 nM

Molecule: CC1(C)S[C@@H]2[C@H](NC(=O)[C@H](N)c3ccccc3)C(=O)N2[C@H]1C(=O)O [ampicillin]
Sensitivity of S. aureus on solid media (filter disc) [6]: clear zone

Molecule: recombinant human biotin protein ligase [Met1-Ala80]hBPL-His6
KM (in vitro [3H]biotin incorporation assay, Michaelis-Menten fit) [7]: 1.0 ± 0.2 µM

B1: hPC-108: polypeptide of the C-terminal 108 amino acids (biotin domain) of human pyruvate carboxylase, BPL substrate (protein)
chain: T5 sequence
Km [8]: 1 ± 0.2 µM
